In PMC11597885, “Enhancing Antileishmanial Activity of Amidoxime-Based Compounds Bearing a 4,5-Dihydrofuran Scaffold: In Vitro Screening Against Leishmania amazonensis” (Molecules, 2024):
Like-named read-outs stand apart in the source and are kept apart here.

Assays:
[1] = tested on: intracellular amastigote form of Leishmania amazonensis; assay: Antiamastigote activity assay (infected peritoneal macrophages, infection index); type: cell-based; details: Macrophage, 72 h, L. amazonensis in murine macrophages, mean ± SD from three independent experiments, read-out: Intracellular Amastigotes IC50 (µM/72 h)
Experimental: Resident peritoneal macrophages were seeded in RPMI medium (Sigma-Aldrich) at 1 × 10^6 cells/mL (0.4 mL/well) on Lab-Tek eight-chamber slides (Nunc) and incubated at 37 °C in 5% CO2 for 1 h. After this period, nonadherent cells were removed, and the adherent macrophages were co-cultured with L. amazonensis promastigotes at a 5:1 parasite-to-cell ratio. After 4 h, the monolayers were washed to eliminate free parasites. Cells were then treated with different concentrations of the compounds and incubated for 72 h at 37 °C in 5% CO2. Following incubation, the slides were stained using the Instant Prov hematological dye (Newprov, Curitiba, Brazil), and antileishmanial activity was assessed microscopically. Amastigote numbers were determined by counting at least 100 macrophages per sample, and the results were expressed as an infection index (II), calculated as: II = (percentage of infected cells) × (number of amastigotes/total macrophages). Dose–response curves for the antiamastigote activity were generated using nonlinear regression in GraphPad Prism 5.0, and IC50 values were calculated.

[2] = tested on: Leishmania amazonensis promastigotes, strain MHOM/BR/77/LTB0016; assay: Antipromastigote activity assay (resazurin); type: cell-based; details: 72 h, mean ± SD from three independent experiments, read-out: Activity IC50 (µM/72 h), promastigote form of L. amazonensis
Experimental: Initially, compounds 14 to 25 were subjected to preliminary in vitro screening against Leishmania amazonensis promastigotes, strain MHOM/BR/77/LTB0016. The 50% growth inhibitory concentration (IC50) was measured after 72 h of cultivation with each compound using a resazurin assay conducted in independent triplicate experiments. […] Leishmania amazonensis (MHOM/BR/77/LTB0016) was cultured as promastigotes at 26 °C using Schneider’s insect medium (Sigma-Aldrich, St Louis, MO, USA), supplemented with 10% heat-inactivated fetal calf serum (HIFCS), 100 μg/mL streptomycin, and 100 U/mL penicillin. The parasites were sustained up to the 10th passage, after which fresh cultures were derived from infected host animals. L. amazonensis promastigotes were cultured in Schneider’s insect medium with 10% HIFCS, as described above, with or without various concentrations of test substances. The initial cell density was 1.0 × 10^6 cells/mL, and the culture was kept at 26 °C for 72 h. Resazurin reduction was used to evaluate the cell viability. The concentration required to inhibit 50% of the promastigote activity (IC50) was calculated using logarithmic regression analysis via GraphPrism 5 software.

[3] = Cytotoxicity assay (resazurin); type: cell-based; details: mouse, murine peritoneal macrophages, 0–200 µM tested, mean ± SD from three independent experiments
Experimental: Murine peritoneal macrophages were collected by flushing the peritoneal cavity with 5 mL of RPMI 1640 medium containing 10% HIFCS, 2 mM L-glutamine, 1 mM pyruvate, 100 μg/mL streptomycin, and 100 U/mL penicillin. The macrophage suspension was adjusted to 1.0 × 10^6 cells/mL and then plated in triplicate in 96-well plates (Falcon Co., Franklin Lakes, NJ, USA). Cultures were incubated at 37 °C in a 5% CO2 environment for 1 h. Nonadherent cells were subsequently removed, and the remaining cells were exposed to varying concentrations of test compounds (0–200 μM) for 72 h. Viability was assessed using a resazurin assay, and the concentration that caused 50% cytotoxicity (CC50) was determined using logarithmic regression analysis with GraphPrism 5 software.

[4] = tested on: intracellular amastigote form of Leishmania amazonensis; parameters: method as in PMID 21555166, PMID 20833057; details: previously reported HIT; read-out: IC50 for the intracellular amastigote form of L. amazonensis; cited from earlier work

| Compound | IC50 [1] | IC50 [2] | CC50 at 72 h [3] | IC50 [4] |
| --- | --- | --- | --- | --- |
| CC1(Cc2ccccc2)CC(C(=O)Nc2ccc(Cl)cn2)=C(c2ccc(C(N)=NO)cc2)O1 (stereo not shown) [Compound 15, 5-Benzyl-N-(5-chloropyridin-2-yl)-2-(4-(N′-hydroxycarbamimidoyl)phenyl)-5-methyl-4,5-dihydrofuran-3-carboxamide] | 0.6 ± 0.2 µM | 16 ± 1.03 µM | > 200 µM |  |
| CC1(Cc2ccccc2)CC(C(=O)Nc2cnccn2)=C(c2ccc(C(N)=NO)cc2)O1 (stereo not shown) [Compound 24, 5-Benzyl-2-(4-(N′-hydroxycarbamimidoyl)phenyl)-5-methyl-N-(pyrazin-2-yl)-4,5-dihydrofuran-3-carboxamide] |  | 39.4 ± 1.02 µM |  |  |
| CC1(Cc2ccccc2)CC(S(=O)(=O)c2ccc(F)cc2)=C(c2ccc(C(N)=NO)cc2)O1 (stereo not shown) [HIT, 4-(5-benzyl-3-((4-fluorophenyl)sulfonyl)-5-methyl-4,5-dihydrofuran-2-yl)-N′-hydroxybenzimidamide] |  |  |  | 7.9 ± 1.1 µM |
| CC1(Cc2ccccc2)CC(C(=O)Nc2ccc(F)cc2)=C(c2ccc(C(N)=NO)cc2)O1 (stereo not shown) [Compound 20, 5-Benzyl-N-(4-fluorophenyl)-2-(4-(N′-hydroxycarbamimidoyl)phenyl)-5-methyl-4,5-dihydrofuran-3-carboxamide] |  | 23.8 ± 1.02 µM |  |  |
| CC1(Cc2ccccc2)CC(C(=O)Nc2ccccc2)=C(c2ccc(C(N)=NO)cc2)O1 (stereo not shown) [Compound 19, 5-Benzyl-2-(4-(N′-hydroxycarbamimidoyl)phenyl)-5-methyl-N-phenyl-4,5-dihydrofuran-3-carboxamide] |  | 23.8 ± 1.02 µM |  |  |
| CC1(Cc2ccccc2)CC(C(=O)Nc2ccccn2)=C(c2ccc(C(N)=NO)cc2)O1 (stereo not shown) [Compound 17, 5-Benzyl-2-(4-(N′-hydroxycarbamimidoyl)phenyl)-5-methyl-N-(pyridin-2-yl)-4,5-dihydrofuran-3-carboxamide] |  | 22.4 ± 1.02 µM |  |  |
| Cc1cc(NC(=O)C2=C(c3ccc(C(N)=NO)cc3)OC(C)(Cc3ccccc3)C2)nn1C (stereo not shown) [Compound 25, 5-Benzyl-N-(1,5-dimethyl-1H-pyrazol-3-yl)-2-(4-(N′-hydroxycarbamimidoyl)phenyl)-5-methyl-4,5-dihydrofuran-3-carboxamide] |  | 52.5 ± 1.03 µM |  |  |
| CC1(Cc2ccccc2)CC(C(=O)Nc2ccc(Cl)nn2)=C(c2ccc(C(N)=NO)cc2)O1 (stereo not shown) [Compound 23, 5-Benzyl-N-(6-chloropyridazin-3-yl)-2-(4-(N′-hydroxycarbamimidoyl)phenyl)-5-methyl-4,5-dihydrofuran-3-carboxamide] |  | 36.4 ± 1.03 µM |  |  |
| CC1(Cc2ccccc2)CC(C(=O)Nc2cccnn2)=C(c2ccc(C(N)=NO)cc2)O1 (stereo not shown) [Compound 22, 5-Benzyl-2-(4-(N′-hydroxycarbamimidoyl)phenyl)-5-methyl-N-(pyridazin-3-yl)-4,5-dihydrofuran-3-carboxamide] |  | 29.9 ± 1.02 µM |  |  |
| Cc1ccc(NC(=O)C2=C(c3ccc(C(N)=NO)cc3)OC(C)(Cc3ccccc3)C2)nc1 (stereo not shown) [Compound 16, 5-Benzyl-2-(4-(N′-hydroxycarbamimidoyl)phenyl)-5-methyl-N-(5-methylpyridin-2-yl)-4,5-dihydrofuran-3-carboxamide] | 0.3 ± 0.07 µM | 17 ± 1.02 µM | > 200 µM |  |
| CC1(Cc2ccccc2)CC(C(=O)NCc2ccc(C(F)(F)F)cc2)=C(c2ccc(C(N)=NO)cc2)O1 (stereo not shown) [Compound 21, 5-Benzyl-2-(4-(N′-hydroxycarbamimidoyl)phenyl)-5-methyl-N-(4-(trifluoromethyl)benzyl)-4,5-dihydrofuran-3-carboxamide] |  | 26.4 ± 1.02 µM |  |  |
| CC1(Cc2ccccc2)CC(C(=O)Nc2ccncc2)=C(c2ccc(C(N)=NO)cc2)O1 (stereo not shown) [Compound 18, 5-Benzyl-2-(4-(N′-hydroxycarbamimidoyl)phenyl)-5-methyl-N-(pyridin-4-yl)-4,5-dihydrofuran-3-carboxamide] |  | 23.5 ± 1.04 µM |  |  |
| CC1(Cc2ccccc2)CC(C(=O)Nc2ccc(Br)cn2)=C(c2ccc(C(N)=NO)cc2)O1 (stereo not shown) [Compound 14, 5-Benzyl-N-(5-bromopyridin-2-yl)-2-(4-(N′-hydroxycarbamimidoyl)phenyl)-5-methyl-4,5-dihydrofuran-3-carboxamide] | 0.5 ± 0.15 µM | 15 ± 1.03 µM | 171.5 ± 1.19 µM |  |
